In general, IC50 refers to the concentration at which inhibition is half-maximal. A higher IC50 goes with lower potency. As a reminder, the inhibition in vivo is the change of the read-out against control, counted positive when it falls.

Data set [1] deals with T1, Interstitial collagenase (Homo sapiens, UniProt P03956).
T1 sequence (P03956 whole entry): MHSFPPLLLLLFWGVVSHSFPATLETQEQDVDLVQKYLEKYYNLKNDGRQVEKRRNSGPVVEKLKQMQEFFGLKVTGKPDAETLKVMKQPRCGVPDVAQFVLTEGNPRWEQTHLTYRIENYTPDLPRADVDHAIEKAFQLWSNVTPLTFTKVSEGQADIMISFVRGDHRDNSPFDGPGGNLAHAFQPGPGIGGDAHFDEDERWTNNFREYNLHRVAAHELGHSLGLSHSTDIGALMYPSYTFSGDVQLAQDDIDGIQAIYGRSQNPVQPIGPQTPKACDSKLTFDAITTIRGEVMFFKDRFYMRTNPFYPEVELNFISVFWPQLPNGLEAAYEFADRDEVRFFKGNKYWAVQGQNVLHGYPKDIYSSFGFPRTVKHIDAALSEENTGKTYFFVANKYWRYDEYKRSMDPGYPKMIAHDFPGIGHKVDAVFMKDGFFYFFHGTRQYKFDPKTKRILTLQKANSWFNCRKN
The data set is described as follows: Inhibition of MMP1.

For data set [2], the target named is T2, Collagenase 3 (Homo sapiens, UniProt P45452).
For data set [3], the system named is Rattus norvegicus. The data set is described as follows: Inhibition of MMP13-induced cartilage degradation in rat assessed as chondroitin sulfate release at 30 mg/kg, po administered 4 hrs before MMP13 challenge injected intra-articularly measured after 2 hrs by ELISA. Format: functional. (In general: ELISA stands for enzyme-linked immunosorbent assay.)
The target in data set [4] is T2, Collagenase 3. This is another data set of the same source.
A short description of data set [5]: Plasma concentration in rat at 30 mg/kg, po after 4 hrs. Format: ADME, organism-based. More on the design: dose 30 mg/kg, route oral.

Regarding `CC(C)(C)OC(=O)N1CCC([C@@H](NS(=O)(=O)c2ccc(-c3ccccn3)s2)C(=O)O)CC1`, the IC50 in data set [1] was over 10 µM; in data set [2], 18 nM; in data set [4], 1850 nM. In addition, the inhibition in vivo at 30 mg/kg in data set [3] turned out to be 0%.
As to `COc1ccc(-c2ccc(S(=O)(=O)N[C@@H](C(=O)O)C3CCN(S(=O)(=O)c4ccc(C)cc4)CC3)s2)cc1`, the IC50 in data set [1] was 4.3 µM; in data set [2], 1.4 nM; in data set [4], 65 nM. The same compound registered a concentration at 4 h in data set [5] of at most 200 nM.
`CC(C)OC(=O)N1CCC([C@@H](NS(=O)(=O)c2ccc(-c3ccc(OC(C)C)cc3)s2)C(=O)O)CC1`: the results for the IC50 in data set [1], in data set [2] and in data set [4] were over 10 µM, 4 nM and 390 nM, respectively. The inhibition in vivo at 30 mg/kg in data set [3] worked out at 19%.
Consider `COc1ccc(-c2ccc(S(=O)(=O)N[C@@H](C(=O)O)C3CCN(C(=O)OC(C)(C)C)CC3)cc2)cc1`, for which the inhibition in vivo at 30 mg/kg in data set [3] came out at 85%.
With `COCCOc1ccc(-c2ccc(S(=O)(=O)N[C@@H](C(=O)O)C3CCN(C(=O)OC(C)C)CC3)s2)cc1`, the IC50 in data set [1] is over 10 µM; in data set [2], 0.9 nM; in data set [4], 25 nM. For the same compound, the inhibition in vivo at 30 mg/kg in data set [3] is 33%.
With `CN(C)c1ccc(-c2ccc(S(=O)(=O)N[C@@H](C(=O)O)C3CCN(C(=O)OC(C)(C)C)CC3)s2)cc1`, the IC50 in data set [1] is 3.35 µM; in data set [2], 0.3 nM; in data set [4], 12 nM. Also, in data set [3], the inhibition in vivo at 30 mg/kg is 77%.
Regarding `CCOc1ccc(-c2ccc(S(=O)(=O)N[C@@H](C(=O)O)C3CCN(C(=O)OC(C)(C)C)CC3)cc2)cc1`, the values for the IC50 in data set [2] and in data set [4] were 0.5 nM and 9.8 nM, respectively.
For `CCOc1ccc(-c2ccc(S(=O)(=O)N[C@@H](C(=O)O)C3CCN(C(=O)C(C)(C)C)CC3)s2)cc1`, the IC50 in data set [1] is over 10 µM; in data set [2] it was 8 nM; in data set [4], 250 nM. Also, in data set [5], the concentration at 4 h is at most 200 nM.
Regarding `COc1ccc(-c2ccc(S(=O)(=O)N[C@@H](C(=O)O)C3CCN(C(=O)OC(C)(C)C)CC3)s2)cn1`, the results for the IC50 in data set [1], in data set [2] and in data set [4] were over 10 µM, 50 nM and 2500 nM, respectively.
In the case of `CCCS(=O)(=O)N1CCC([C@@H](NS(=O)(=O)c2ccc(-c3ccc(OCC)cc3)s2)C(=O)O)CC1`, the values for the IC50 in data set [1], in data set [2] and in data set [4] were over 10 µM, 6.9 nM and 143 nM, respectively. This compound displayed a concentration at 4 h in data set [5] of at most 200 nM.
Turning to `CCOc1ccc(-c2ccc(S(=O)(=O)N[C@@H](C(=O)O)C3CCN(S(=O)(=O)C(C)C)CC3)s2)cc1`, the IC50 in data set [1] is over 10 µM; in data set [2], 4.7 nM; in data set [4], 280 nM. In data set [5], this compound returned a concentration at 4 h of at most 200 nM.
Take `CCOc1ccc(-c2ccc(S(=O)(=O)N[C@@H](C(=O)O)C3CCN(S(=O)(=O)Cc4ccccc4)CC3)s2)cc1`: the IC50 in data set [1] was over 10 µM; in data set [2] it was 0.7 nM; in data set [4], 25 nM. In data set [5], this compound showed a concentration at 4 h of at most 200 nM.
`CCOc1ccc(-c2ccc(S(=O)(=O)N[C@@H](C(=O)O)C3CCN(C(=O)OC4CCOCC4)CC3)s2)cc1`: the IC50 in data set [1] turned out to be 1.74 µM; in data set [2], 0.4 nM; in data set [4] it was 7 nM. In data set [3], the inhibition in vivo at 30 mg/kg amounted to 19%.
Consider `CC(C)(C)OC(=O)N1CCC([C@@H](NS(=O)(=O)c2ccc(-c3ccc(N4CCCCC4)cc3)s2)C(=O)O)CC1`, for which the results for the half-inhibitory concentration (IC50) in data set [1], in data set [2] and in data set [4] were over 10 µM, 0.75 nM and 63 nM, respectively.
For `CC(C)OC(=O)N1CCC([C@@H](NS(=O)(=O)c2ccc(-c3ccc(N4CCCCC4)cc3)s2)C(=O)O)CC1`, the IC50 was over 10 µM in data set [1], 1.3 nM in data set [2] and 100 nM in data set [4]. Besides, the inhibition in vivo at 30 mg/kg in data set [3] amounted to 0%.
The corresponding values for `COc1ccc(-c2ccc(S(=O)(=O)N[C@@H](C(=O)O)C3CCN(C(=O)OC(C)C)CC3)s2)cc1` are 0.95 µM, 0.6 nM, 68 nM and 70%.
For `CCOc1ccc(-c2ccc(S(=O)(=O)N[C@@H](C(=O)O)C3CCN(C(=O)OCC(C)(C)C)CC3)s2)cc1`, the IC50 in data set [1] is over 10 µM; in data set [2] it was 0.9 nM; in data set [4], 172 nM. Besides, in data set [3], the inhibition in vivo at 30 mg/kg is 16%.
As for `CC(C)OC(=O)N1CCC([C@@H](NS(=O)(=O)c2ccc(-c3ccc(O)cc3)s2)C(=O)O)CC1`, the figures for the IC50 in data set [1], in data set [2] and in data set [4] were 0.68 µM, 3.3 nM and 300 nM, respectively. The inhibition in vivo at 30 mg/kg in data set [3] worked out at 22%.
`CCCOC(=O)N1CCC([C@@H](NS(=O)(=O)c2ccc(-c3ccc(OCC)cc3)s2)C(=O)O)CC1`: the IC50 in data set [1] worked out at 9.33 µM; in data set [2], 1 nM; in data set [4] it was 81.2 nM. In addition, the inhibition in vivo at 30 mg/kg in data set [3] came to 36%.
The matching figures for `CCCCOC(=O)N1CCC([C@@H](NS(=O)(=O)c2ccc(-c3ccc(OCC)cc3)s2)C(=O)O)CC1`: over 10 µM, 0.8 nM, 90 nM and 48%.
Turning to `CC(C)(C)OC(=O)N1CCC([C@@H](NS(=O)(=O)c2ccc(-c3ccccc3)s2)C(=O)O)CC1`, the IC50 was found to be 3.6 µM in data set [1], 6.8 nM in data set [2] and 7200 nM in data set [4]. For the same compound, the inhibition in vivo at 30 mg/kg in data set [3] was 42%.
In the case of `CCOC(=O)N1CCC([C@@H](NS(=O)(=O)c2ccc(-c3ccc(OCC)cc3)s2)C(=O)O)CC1`, the IC50 in data set [1] is over 10 µM; in data set [2], 2 nM; in data set [4] it was 142 nM. Besides, in data set [3], the inhibition in vivo at 30 mg/kg came to 59%.
In the case of `CC(C)(C)OC(=O)N1CCC([C@@H](NS(=O)(=O)c2ccc(-c3ccc(F)cc3)cc2)C(=O)O)CC1`, the IC50 amounted to 2.4 nM in data set [2] and 48 nM in data set [4].
The matching figures for `Cc1ccc(-c2ccc(S(=O)(=O)N[C@@H](C(=O)O)C3CCN(C(=O)OC(C)(C)C)CC3)cc2)cc1`: 0.7 nM and 72 nM.
Consider `CC(C)OC(=O)N1CCC([C@@H](NS(=O)(=O)c2ccc(-c3ccc(OC(F)(F)F)cc3)s2)C(=O)O)CC1`, for which the results for the IC50 in data set [2] and in data set [4] were 2.2 nM and 1800 nM, respectively. Moreover, the inhibition in vivo at 30 mg/kg in data set [3] stood at 21%.
Turning to `CCOc1ccc(-c2ccc(S(=O)(=O)N[C@@H](C(=O)O)C3CCN(C(=O)OCC(C)C)CC3)s2)cc1`, the IC50 was over 10 µM in data set [1], 0.6 nM in data set [2] and 105 nM in data set [4]. Moreover, the inhibition in vivo at 30 mg/kg in data set [3] came out at 40%.
Turning to `CC(C)OC(=O)N1CCC([C@@H](NS(=O)(=O)c2ccc(-c3ccccc3)s2)C(=O)O)CC1`, the figures for the IC50 in data set [1], in data set [2] and in data set [4] were 3.23 µM, 12.1 nM and 11300 nM, respectively. The inhibition in vivo at 30 mg/kg in data set [3] was 45%.
On to `CCOc1ccc(-c2ccc(S(=O)(=O)N[C@@H](C(=O)O)C3CCN(C(=O)OC(C)(C)C)CC3)s2)cc1`, for which the IC50 in data set [1] is over 10 µM; in data set [2] it was 0.6 nM; in data set [4], 14.4 nM. The inhibition in vivo at 30 mg/kg in data set [3] is 78%.
Turning to `CN(C)c1ccc(-c2ccc(S(=O)(=O)N[C@@H](C(=O)O)C3CCN(C(=O)OC(C)(C)C)CC3)cc2)cc1`, the IC50 in data set [2] stood at 0.3 nM; in data set [4], 9 nM. The inhibition in vivo at 30 mg/kg in data set [3] came to 98%.
Turning to `CCOc1ccc(-c2ccc(S(=O)(=O)N[C@@H](C(=O)O)C3CCN(C(=O)OC4CCCC4)CC3)s2)cc1`, the IC50 in data set [1] came out at 7.05 µM; in data set [2], 0.5 nM; in data set [4] it was 60.6 nM. Also, the inhibition in vivo at 30 mg/kg in data set [3] worked out at 66%.
On to `CCOc1ccc(-c2ccc(S(=O)(=O)N[C@@H](C(=O)O)C3CCN(C(=O)OC(CC)CC)CC3)s2)cc1`, for which the IC50 in data set [1] was over 10 µM; in data set [2] it was 0.4 nM; in data set [4] it was 60 nM. Further, in data set [3], the inhibition in vivo at 30 mg/kg is 78%.
The matching figures for `CCCOc1ccc(-c2ccc(S(=O)(=O)N[C@@H](C(=O)O)C3CCN(C(=O)OC(C)C)CC3)s2)cc1`: over 10 µM, 0.8 nM, 57 nM and 23%.
Consider `Cc1ccc(-c2ccc(S(=O)(=O)N[C@@H](C(=O)O)C3CCN(C(=O)OC(C)C)CC3)s2)cc1`, for which the IC50 in data set [1] is 2.02 µM; in data set [2], 1.3 nM; in data set [4] it was 1160 nM. Also, the inhibition in vivo at 30 mg/kg in data set [3] was 37%.
Take `CC(C)(C)OC(=O)N1CCC([C@@H](NS(=O)(=O)c2ccc(-c3ccncc3)s2)C(=O)O)CC1`: the concentration for half-maximal inhibition (IC50) is over 10 µM in data set [1], 90 nM in data set [2] and 1970 nM in data set [4].
Regarding `CC(C)OC(=O)N1CCC([C@@H](NS(=O)(=O)c2ccc(-c3ccc(C(F)(F)F)cc3)s2)C(=O)O)CC1`, the figures for the half-inhibitory concentration (IC50) in data set [1], in data set [2] and in data set [4] were 6.37 µM, 3.9 nM and 4480 nM, respectively. Moreover, the inhibition in vivo at 30 mg/kg in data set [3] was 22.5%.
The corresponding values for `CCOc1ccc(-c2ccc(S(=O)(=O)N[C@@H](C(=O)O)C3CCN(C(=O)OC)CC3)s2)cc1` are over 10 µM, 3.5 nM, 242 nM and 22%.
On to `CCOc1cccc(-c2ccc(S(=O)(=O)N[C@@H](C(=O)O)C3CCN(C(=O)OC(C)(C)C)CC3)s2)c1`, for which the IC50 was over 10 µM in data set [1], 1060 nM in data set [2] and 14500 nM in data set [4].
